The values that follow come from US20250073311A1, “DOSAGE REGIME” (ZEALAND PHARMA A/S, priority 2021, published 2025).

For the data set, the system named is healthy human subjects. The data set is described as follows: Single ascending dose Phase 1a trial, adverse events. The note with it: 6 subjects. Type of data set: in vivo. As for the experimental part: A single ascending dose Phase 1a trial was conducted for Cpd. 18 investigating the safety of single subcutaneous injections of doses ranging from 0.02 mg to 7.5 mg in healthy human subjects.
The phase 1a study was a First in Human, Randomized, Double-blind, Placebo-controlled, Single Ascending Dose Trial assessing Safety, Tolerability, Pharmacokinetics and Pharmacodynamics of a Single Subcutaneous Dose of Cpd. 18 in Healthy human Subjects.
Eight cohorts (dose levels: 0.02, 0.07, 0.2, 0.6, 1.5, 3.0, 6.0 and 7.5 mg) were given in this first in human trial. Eight subjects were allocated to the following ascending dose levels: 0.02, 0.07, 0.2, 0.6, 1.5, 3.0, 6.0 and 7.5 mg.
Adverse events (AE) were captured by asking open ended and nonleading questions according to the following wording in the protocol:
• All events meeting the definition of an AE must be collected and reported from the first trial-related activity after the subject has signed the informed consent and until the end of the post-treatment follow-up period. At each contact with the site (Visit or telephone) the subject must be asked about AEs. All AEs, either observed by the Investigator or reported by the subject, must be recorded by the Investigator and evaluated. • The Investigator should record the diagnosis, if possible. If no diagnosis can be made the Investigator should record each sign and symptom as individual AEs. • All AEs must be recorded by the Investigator. One single Adverse Event Form must be used per AE from start to resolution. For Serious Adverse Events (SAE), the Serious Adverse Event Form must also be completed.”

Each structure is given as a SMILES string. Values joined by “and” are separate entries in the source; they are usually repeats but may differ in a detail not shown here. Identical values can stand only once. Numbered stars: 1 amine (or outer) side, 2 acyl side, 3 side chain; on linkers, the order of the positions; unused ones are H or OH. Square brackets hold non-standard residues; d marks the D form. Side chains are listed from the residue outwards. Peptide text beside a SMILES is read from it. * marks the point of attachment. C18 diacid = O=C(O)CCCCCCCCCCCCCCCCC(=O)*; γGlu = O=C(O)[C@H](CCC(=O)[*:2])N[*:1]; Aib = CC(C)(N)C(=O)O

Take `CC[C@H](C)[C@H](NC(=O)[C@H](Cc1ccccc1)NC(=O)[C@H](CC(=O)O)NC(=O)[C@H](CCCNC(=N)N)NC(=O)[C@H](C)NC(=O)[C@H](C)NC(=O)[C@H](CCC(N)=O)NC(=O)[C@H](CCCCNC(=O)CC[C@H](NC(=O)CCCCCCCCCCCCCCCCC(=O)O)C(=O)O)NC(=O)[C@H](CC(=O)O)NC(=O)[C@H](CC(C)C)NC(=O)[C@@H](NC(=O)[C@@H](NC(=O)[C@H](C)NC(=O)[C@H](CC(C)C)NC(=O)[C@H](CCC(=O)O)NC(=O)[C@H](CO)NC(=O)[C@@H](NC(=O)[C@H](Cc1ccccc1)NC(=O)[C@H](CO)NC(=O)CNC(=O)[C@H](CCC(=O)O)NC(=O)C(C)(C)NC(=O)[C@@H](N)Cc1c[nH]cn1)[C@@H](C)O)[C@@H](C)O)[C@@H](C)CC)C(=O)N[C@@H](C)C(=O)N[C@@H](Cc1c[nH]c2ccccc12)C(=O)N[C@@H](CC(C)C)C(=O)N[C@H](C(=O)N[C@@H](CCC(N)=O)C(=O)N[C@@H](Cc1c[nH]cn1)C(=O)N[C@@H](CCCCN)C(=O)N[C@H](C(=O)N[C@H](C(=O)N[C@@H](CC(=O)O)C(=O)O)[C@@H](C)O)[C@@H](C)CC)[C@@H](C)CC` [Compound 18] (H-H[Aib]EGSFTSELATILDK([γGlu-C18 diacid])QAARDFIAWLIQHKITD-OH): the “Subjects experiencing decreased appetite” value (single s.c. dose 0.02 mg) came to 0; the “Subjects experiencing decreased appetite” value (single s.c. dose 0.07 mg) came out at 1; the “Subjects experiencing decreased appetite” value (single s.c. dose 0.2 mg) amounted to 0; the “Subjects experiencing decreased appetite” value (single s.c. dose 0.6 mg) is on record as 0; the “Subjects experiencing decreased appetite” value (single s.c. dose 1.5 mg) was 3/6 and 3; the “Subjects experiencing decreased appetite” value (single s.c. dose 3.0 mg) is reported as 2. Moreover, the “Subjects experiencing decreased appetite” value (single s.c. dose 6.0 mg) amounted to 3. For the same compound, the Subjects experiencing nausea (single s.c. dose 0.02 mg) was determined as 2; the Subjects experiencing nausea (single s.c. dose 0.07 mg) turned out to be 0; the Subjects experiencing nausea (single s.c. dose 0.2 mg) is 1; the Subjects experiencing nausea (single s.c. dose 0.6 mg) was found to be 0; the Subjects experiencing nausea (single s.c. dose 1.5 mg) is listed as 0; the Subjects experiencing nausea (single s.c. dose 3.0 mg) is recorded as 3. In addition, the Subjects experiencing nausea runs as follows: (single s.c. dose 6.0 mg) 4; (single s.c. dose 7.5 mg) 2. Besides, the Subjects experiencing vomiting is, setting by setting: (single s.c. dose 0.02 mg) 0; (single s.c. dose 0.07 mg) 0; (single s.c. dose 0.2 mg) 0; (single s.c. dose 0.6 mg) 0; (single s.c. dose 1.5 mg) 0; (single s.c. dose 3.0 mg) 2. Also, the Subjects experiencing vomiting runs as follows: (single s.c. dose 6.0 mg) 5; (single s.c. dose 7.5 mg) 2.
